What all share (test): NCI anticancer screen, dose series, 48 h
Test [1] relates to NCI-H226 lung.
Test [2] concerns RPMI-8226 leukemia.
Test [3] deals with SF-295 CNS.
The test system of test [4] is SN12C renal.
For test [5], the system named is SW-620 colon.
Test [6] relates to T-47D breast.
Test [7] deals with UACC-257 melanoma.
The subject of test [8] is MDA-MB-231 breast.
Test [9] has as its system U251 CNS.
Test [10] concerns SK-MEL-5 melanoma.

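Five compound concentrations were applied to cells in 96-well plates for 48 hours; endpoints were derived by simple linear interpolation of the resulting dose-response curve. TGI denotes the concentration required for complete inhibition of growth.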

For `COc1ccc(C[C@@H]2CN(C(=O)c3ccccc3)[C@H](Cc3ccc(O)cc3)CN2C(=O)c2ccccc2)cc1Br`, the TGI in test [1], in test [2], in [3], in test [4], in [5] and in test [6] was over 100 µM throughout. Also, the TGI in test [7] was over 100 µM.
On to `COc1ccc(-n2c(CCCC(=O)O)nc3c2C(=O)c2ccccc2C3=O)cc1`, for which the TGI in [8], in test [2], in test [3], in test [4], in test [5] and in test [6] was over 100 µM in each case. Further, the TGI in [9] and in test [7] was over 100 µM each time.
Regarding `CCOC(=O)c1nc2c3c(ncn2n1)Oc1c(c(-c2ccccc2)nn1-c1ccccc1)C3c1ccc(OC)c(OC)c1` (configuration not stated), the TGI in [8], in [2], in test [3], in test [10], in test [4] and in [5] was over 100 µM throughout. Also, the TGI in test [9] and in test [7] was over 100 µM in each case.
`CC1C(c2ccc(N(C)C)cc2)c2cc3c(cc2OC1N1CCCC1)OCO3` (configuration not stated): the TGI is 97.5 µM in test [2]; over 94.8 µM in test [3]; over 100 µM in test [10]; over 100 µM in [4]; over 100 µM in [5]; over 100 µM in test [6]. The TGI in test [9] and in test [7] was over 100 µM each time.
For `O=c1c2cc([N+](=O)[O-])ccc2n2n1Cc1ccccc1CC2`, the TGI in test [8], in test [1], in test [2], in test [3], in [10] and in [4] was over 100 µM throughout. In addition, the TGI in [5], in test [9] and in [7] was over 100 µM in each case.
In the case of `Fc1cccc(F)c1C1SCC2=Nc3ccccc3CN21` (configuration not stated), the TGI in [8], in test [2], in test [3], in test [10], in test [4] and in [5] was over 100 µM each time. Moreover, the TGI in test [6], in test [9] and in test [7] was over 100 µM each time.
In the case of `CCOC(=O)C1NCCc2c1[nH]c1ccccc21` (configuration not stated), the TGI in [8], in [2], in test [3], in test [10], in test [4] and in [5] was over 10 µM throughout. Further, the TGI in [6] and in [7] was over 10 µM throughout.
As to `CC(C)(C)C1CCC2c3c([nH]c4ccccc34)C3C(=O)N(c4cc(Br)cc(Br)c4)C(=O)C3C2C1` (configuration not stated), the TGI in [8] is 58.8 µM; in test [1], 75.6 µM; in test [2], over 100 µM; in test [10], over 100 µM; in test [4], 29.1 µM; in [5] it was over 100 µM. Also, the TGI in [9] was 30.3 µM; in [7], over 100 µM.
For the molecule `CCOC(=O)NNC(=O)NCCNC(=O)NNC(=O)OCC`, the TGI in test [8], in test [1], in test [2], in test [10], in test [4] and in [5] was over 100 µM throughout. Besides, the TGI in test [6], in test [9] and in [7] was over 100 µM in each case.
For `c1cc(-c2cscc2-c2ccsc2)cs1`, the TGI in [8], in test [2], in test [3], in [10], in test [4] and in test [5] was over 100 µM throughout. The TGI in [6], in test [9] and in [7] was over 100 µM each time.
In the case of `CSc1n[nH]c(N)c1C(=O)Nc1ccc(Cl)cc1`, the TGI in [8] is over 100 µM; in test [1] it was 76.5 µM; in test [2], over 100 µM; in test [10] it was over 100 µM; in test [4], over 100 µM; in [5], over 100 µM. In addition, the TGI in test [6], in test [9] and in [7] was over 100 µM each time.
Regarding `COc1ccc(NC(=S)NN=C(C)c2cccc(C(C)=NNC(=S)Nc3ccc(OC)cc3)n2)cc1`, the TGI in test [1], in test [2], in test [3], in test [10], in test [4] and in [5] was over 100 µM each time. Besides, the TGI in test [6], in test [9] and in test [7] was over 100 µM each time.
With `COc1c2nc(CCl)n(C)c(=O)c2c(OC)c2c(=O)n(C)c(CCl)nc12`, the TGI in test [8] stood at 2.88 µM; in [1], 13.7 µM; in [2], 1.64 µM; in test [3], 5.16 µM; in test [10], 4.96 µM; in test [4], 3.56 µM. The TGI in [5] is 2.6 µM; in test [9] it was 3.29 µM; in test [7], 5.24 µM.
In the case of `Cc1c(C)c(C)c(-n2c(=O)n(C)c(=O)n2C(C)(C)C)c(C)c1C`, the TGI in test [8], in [2], in test [3], in [10], in [4] and in test [5] was over 100 µM in each case. Besides, the TGI in [6], in test [9] and in test [7] was over 100 µM in each case.
On to `COc1c(C2(c3ccc(F)cc3)SCCCS2)c(=O)c1=O`, for which the TGI in test [8], in test [1], in test [2], in test [3], in test [10] and in [4] was over 100 µM throughout. For the same molecule, the TGI in test [5], in [9] and in test [7] was over 100 µM in each case.
As for `CC(=O)N[C@@H](Cc1ccc(O)cn1)C(=O)NCc1cccc(F)c1`, the TGI in test [1], in [2], in [3], in test [10], in [4] and in test [5] was over 100 µM each time. The TGI in test [6], in [9] and in test [7] was over 100 µM in each case.
For the molecule `CC12CC3c4ccccc4CN1C3(c1ccccc1)OC2=O` (configuration not stated), the TGI in test [8], in [1], in [3], in [10], in [4] and in test [5] was over 100 µM in each case. Besides, the TGI in test [6], in test [9] and in [7] was over 100 µM each time.
Take `COC(=O)Cc1c([C@@H]2Nc3ccccc3[C@H]2CC(=O)OC)[nH]c2ccccc12`: the TGI in test [8] was 88.9 µM; in test [1], over 100 µM; in test [2] it was 49.4 µM; in test [3], over 100 µM; in [10] it was 21 µM; in test [4], over 100 µM. In addition, the TGI was over 100 µM in test [5], over 100 µM in test [9] and 81.6 µM in [7].
For the molecule `CC(C)CN1CN(c2ccccc2)C2(CCN(CC(C)(c3ccc(F)cc3)C3OCCO3)CC2)C1=O` (configuration not stated), the TGI in [1] is 29.1 µM; in test [3], 10.9 µM; in test [10], 4.95 µM; in test [4], 19.1 µM; in test [5] it was 17.5 µM; in test [6], 15.3 µM. Besides, the TGI in [9] came out at 17.2 µM; in test [7], 10.8 µM.
Consider `N/C(CC/C(N)=N\O)=N\O`, for which the TGI in [8], in test [1], in test [3], in test [10], in [4] and in [5] was over 100 µM in each case. The TGI in test [6], in test [9] and in test [7] was over 100 µM in each case.
In the case of `N#Cc1c(-c2ccco2)c2c(n(C3OC(CO)C(O)C(O)C3O)c1=S)CCCC2` (configuration not stated), the TGI in [8], in test [1], in test [3], in [10], in [4] and in test [6] was over 100 µM in each case. For the same molecule, the TGI in test [7] is over 100 µM.
In the case of `C/C(=N\Nc1nc2cc(C)ccc2s1)c1ccccn1`, the TGI in test [8] was 0.93 µM; in test [1], 9.11 µM; in test [2] it was 3.52 µM; in test [3], over 40.9 µM; in [10] it was 4.35 µM; in test [4] it was 8.85 µM. Also, the TGI in [5] is over 20.2 µM; in [6] it was over 89.7 µM; in test [7], over 100 µM.
For the molecule `Cc1cc(Br)c(N2C3=C(CC4=C2CCCC4=O)C(=O)CCC3)c(Br)c1`, the TGI in [1], in test [2], in test [10], in test [4], in [5] and in test [9] was over 100 µM in each case.
In the case of `O=C(C=P(c1ccccc1)(c1ccccc1)c1ccccc1)C12CC3CC(CC(C3)C1)C2`, the TGI is 32.9 µM in [8]; 20.6 µM in [2]; 28.8 µM in test [10]; 32.3 µM in test [4]; 34.9 µM in [5]; 38.2 µM in test [6]. The TGI in test [9] amounted to 34 µM; in test [7] it was 32.8 µM.
Take `COc1ccc(-c2nc3ncccn3c2-c2ccc(S(C)=O)cc2)cc1` (configuration not stated): the TGI in test [8], in test [2], in test [3], in test [10], in [4] and in test [5] was over 100 µM each time. In addition, the TGI in test [9] and in [7] was over 100 µM in each case.
Take `O=C1CC(NC(=O)C(F)(F)F)c2c(Br)sc(N3CCC(c4ccccc4)CC3)c21` (configuration not stated): the TGI in test [8] was 39.8 µM; in [1], 91.5 µM; in [3], 28.7 µM; in test [10] it was 68.4 µM; in test [4], over 100 µM; in test [5], over 100 µM. Also, the TGI in test [6] turned out to be 55.4 µM; in test [9], 25.5 µM; in [7], 82.4 µM.
As to `CCOC(=O)CC(C)C(C#N)(OP1(=O)OC(c2ccccc2)C(C)N1C)c1ccccc1` (configuration not stated), the TGI in [8], in [2], in [3], in test [10], in [4] and in [5] was over 100 µM throughout. The TGI in [6], in [9] and in test [7] was over 100 µM throughout.
Turning to `Nc1c(Br)cc(-c2cc(Br)c(N)c(Br)c2)cc1Br`, the TGI in test [8], in test [1], in test [2], in test [3], in test [10] and in [4] was over 100 µM each time. In addition, the TGI in [5], in test [6] and in [7] was over 100 µM each time.
Consider `COC(=O)c1ccc(CN2CCc3c([nH]c4ccccc34)C2CO)o1` (configuration not stated), for which the TGI in [8], in test [2], in test [3], in test [10], in test [4] and in test [5] was over 10 µM in each case. In addition, the TGI in [6] and in [7] was over 10 µM throughout.
For the molecule `Cc1c2c(n3c(nc4ccccc43)c1C#N)N(c1ccc(Cl)cc1)CC2`, the TGI in test [8], in test [1], in test [3], in [10], in test [4] and in test [5] was over 100 µM each time. Moreover, the TGI in test [9] and in test [7] was over 100 µM throughout.
In the case of `COc1c2cc(C(C)(C)C)cc1CSCc1cc(C(C)(C)C)cc(c1OC)CCCCC2`, the TGI in [8], in test [1], in [3], in [10], in [4] and in test [5] was over 50 µM each time. The TGI is over 50 µM in [6], over 50 µM in [9] and 49.1 µM in test [7].
